Measurements as given in US11771685B2, “Compounds for the treatment of neurological or mitochondrial diseases” (MUSC FOUNDATION FOR RESEARCH DEVELOPMENT, priority 2018, dated 2023).
pEC50: −log10 of the molar value.

Experiments:
[1] = system: PTZ-induced seizure activity in zebrafish larvae; experiment: Zebrafish PTZ-induced seizure model; format: in vivo; conditions: for anti-seizure activity / minimal effective concentration: 7 dpf larvae; for anti-seizure activity: PTZ; for minimal effective concentration: 1 hr pre-treatment, 10 mM PTZ, read-out: Anti-seizure activity: lowest tested dose with significant difference vs PTZ-only group
Procedure: The zebrafish PTZ-induced seizure model was used to determine the most promising compounds' in vivo efficacy. Zebrafish larvae (7 dpf) were treated with the compound for 1 hr prior to inducing seizures with PTZ. As established by previous larval zebrafish anti-seizure studies (Rahn et al., 2014; Hansen et al., 2004; Baraban et al., 2005), total distance traveled by each fish after seizure induction was measured and used as a proxy for seizure activity. Following collection of locomotor data, observation of a startle response and visual inspection for abnormal morphology confirmed that alterations in swim activity were not caused by compound toxicity.
We induced seizures in 7 dpf zebrafish larvae by the addition of […] PTZ as originally developed by Baraban et al., 2005. In a 48-well plate, one 7-dpf zebrafish was added per well. Larvae were dosed with each compound at a sub-lethal dose 1 hr prior to PTZ treatment. Two control rows were included with each experiment—tank water only control and PTZ only. Seizures were induced by adding PTZ to wells to yield a final concentration of 10 mM. After 5 min, the plate was transferred to the Daniovision instrument (Noldus Information Technology) and the chamber light was turned on. After 2 min, MediaRecorder (Noldus) was used to record video for 15 min. A small number of videos were acquired at 25 frames per second, but the majority of data were acquired at 60 frames per second. […] Ethovision XT software (Noldus) was used to track the fish movement from the video images in order to calculate the total distance traveled over 15 min. All experimental comparisons were made between animals from the same clutch.
(§1) Statistical analyses were performed with GraphPad Prism 6 software. For the in vitro HT22 oxytosis assay, dose-response data were fit using GraphPad Prism's log(inhibitor) vs normalized response-variable slope parameters to determine EC50 values and 95% confidence intervals. For the zebrafish locomotive anti-seizure activity data, multiple comparisons were made using a one-way analysis of variance (ANOVA) with a Kruskal-Wallis Test, followed by the Dunn's Method to determine significant differences between all pairs or between control and experimental groups using the Dunn Method for Joint Ranking. Differences were considered statistically significant when p<0.05. Data from zebrafish experiments are represented as scatter dot plots of individual measurements, with means±standard deviation indicated by bars.

HT22 cells = experiment: HT22 oxytosis (glutamate-induced cell death) neuroprotection assay; format: cell-based, mouse; conditions: 10 mM Glu
Procedure: The HT22 murine hippocampal cell system was chosen as an initial phenotypic screen for neuroprotective efficacy (Andreux et al., 2013; Andreux et al., 2014; Ohlow et al., 2017; Schubert and Maher, 2012). HT22 cells exposed to high extracellular Glu ([…]) undergo oxytosis, a non-apoptotic programmed cell death involving glutathione (GSH) depletion followed by ROS accumulation, oxidative damage, and a cytotoxic signaling cascade (Tan et al., 2001). Glu blocks the −xC cystine antiporter, causing (Tan et al., 2001) cells to accumulate severe oxidative stress, mitochondrial depolarization, disrupted mitochondrial morphology, and Ca^2+ influx (Tan et al., 2001; Yang et al., 2011; Cheng et al., 2013—cellular events that may occur in neurological diseases, including epilepsy. Thus, the immortalized HT22 cell line is a well-established model of neuronal oxidative stress (Sagara and Schubert, 1998; Matsumoto et al., 1996; Albrecht et al., 2010; Ha and Park, 2006; van Leyen et al., 2005; Tobaben et al., 2011), and a verified model of neurodegeneration to screen for potential neuroprotective drugs (Albrecht et al., 2010; van Leyen et al., 2008; Lewerenz et al., 2009; Lewerenz et al., 2003).
Consistent with that work, most of the 2-amino compounds achieved protection of HT22 cells against glutamate-induced oxytosis in the nM to μM range. […] Neuroprotection based on relative cell viability compared to +Glu and −Glu control cells was measured.
The HT22 neuronal cell line is a subclone of HT4, derived from the mouse hippocampus (Morimoto and Koshland, 1990). […] The HT22 cells used in this study were kindly provided by Dr. David Schubert (The Salk Institute for Biological Studies, La Jolla, CA, USA). The cells were grown in Dulbecco's Modified Eagle's Medium (DMEM/high glucose) supplemented with 10% fetal bovine serum (Hyclone) and 5 mL of antibiotic-antimycotic (Amphotericin B, Penicillin, and Streptomycin; Invitrogen) at 37° C. in 5% CO2.
HT-22 cells were seeded onto 96-well plates at 2.5×10^3 cells per well in 75 μL of medium and maintained at 37° C. in 5% CO2 overnight prior to the initiation of experimental treatments. For glutamate toxicity testing, cells were subsequently treated with 25 μL of medium containing glutamate (monosodium glutamate, Sigma, 1 M stock concentration in media, to achieve a final concentration of 10 mM) plus compound (stock in DMSO) and maintained at 37° C. in 5% CO2 for 24 hr. CellTiter-Blue® (resazurin cell viability assay reagent) was then added to each well at a final concentration of 0.125 mg/mL. The mixture was allowed to incubate for 2-4 hr until sufficient color change occurred. Cell viability was measured as a function of resorufin fluorescence intensity using a Tecan M200 Pro spectrophotometer, 560 nm/590 nm (excitation/emission). Cell viability was calculated as a percentage compared with untreated controls. EC50s were determined using GraphPad Prism's “log(inhibitor) vs. normalized response-Variable slope” function. Morphology of HT22 cells following treatments was determined by phase-contrast microscopy.
as §1

[2] = Mus musculus, HT-22, 24 h, HT22 cells, 24 hr, 95% CI in parentheses

CCC#CCNC1=CC(=O)c2ccccc2C1=O [Compound 3, 2-(Pent-2-yn-1-ylamino)naphthalene-1,4-dione] was tested, and the “anti-seizure activity” value [1] was “decrease seizures in a zebrafish model of epilepsy in a dose-dependent manner”, the minimal effective concentration ([1]; Danio rerio) was at most 5 µM and the inhibition in vivo at 5 µM ([1]; Danio rerio, 5 μM, read-out: reduction of PTZ-induced locomotor activity) was 62%. It also gave an inhibition in vivo at 10 µM ([1]; Danio rerio, 10 μM, read-out: reduction of PTZ-induced locomotor activity) of 80%, an inhibition in vivo at 20 µM ([1]; Danio rerio, 20 μM, read-out: reduction of PTZ-induced locomotor activity) of 91% and a pEC50 (HT22 cells; [2]) of 6.00.
CC(C)CCOC1=CC(=O)c2ccccc2C1=O [Compound 25, 2-(Isopentyloxy)naphthalene-1,4-dione] was tested, and the “anti-seizure activity” value [1] was “decrease seizures in a zebrafish model of epilepsy in a dose-dependent manner”, the minimal effective concentration ([1]; Danio rerio) was at most 5 µM and the inhibition in vivo at 2.5 µM ([1]; Danio rerio, 2.5 μM, read-out: reduction of PTZ-induced locomotor activity) was 45%. The pEC50 (HT22 cells; HT22 cells, 24 hr, 95% CI in parentheses) was 7.62 and the pEC50 (HT22 cells; [2]) was about 7.62.
CC(C)CCNC1=CC(=O)c2ccccc2C1=O [Compound 17, 2-(Isopentylamino)naphthalene-1,4-dione] gave a minimal effective concentration ([1]; Danio rerio) of 5 µM and a pEC50 (HT22 cells; Mus musculus, HT-22, HT22 cells) of under 4.92.
